In paper PMC3872965 (Journal of immunology (Baltimore, Md. : 1950), 2013):

Test system: B*0702-transgenic mice
Conditions: mouse, in vivo, sc

## RPRWLDARV
  Average T cell response: 659 SFC/10^6 CD8^+
